System: S. pneumoniae R6 strain
Assay: Whole-cell assay on blood agar plates, inhibition zones
Type: cell-based
Details: 0.5, 0.75 and 1.0 μg/mL, data not shown
Description: Whole-cell Assays: Selected compounds were assayed against S. pneumoniae on blood agar plates as shown on FIG. 3.

Structure (SMILES) | antibacterial activity (inhibition zones compared to DMSO)
Cc1ccc(C(=O)CC(NCCc2c[nH]c3ccccc23)C(=O)O)cc1 (centres unmarked) [Compound A, 2-(2-(1H-indol-3-yl)ethylamino)-4-oxo-4-p-tolylbutanoic acid] | weaker antibacterial activity than Compound B
O=C(CC(NCCc1c[nH]c2ccccc12)C(=O)O)c1ccc(F)cc1 (centres unmarked) [Compound B, 2-(2-(1H-indol-3-yl)ethylamino)-4-(4-fluorophenyl)-4-oxobutanoic acid] | significant antibacterial activity
